Measured values taken from publication PMC9812923 (2022).

Tests used:
[1] = test system: GA2 (DNA, G4) GAGGGAGGGAAAAGGGGAGGGA; test: UV-Vis titration, SVD; conditions: 5 mM K+, 95 mM Li+; 10 mM lithium cacodylate pH 7.2, 20 °C; 1:1 model
[2] = test system: GA3 (DNA, G4) AGGGAAAAGGGGAGGGAAAAGGGGA; test: UV-Vis melting, 295 nm; conditions: 100 mM K+; 10 mM lithium cacodylate pH 7.2; 2 equivalents NMM, ~4 μM DNA
[3] = test system: GA1 (DNA, G4) GAGGGAGGGAGGGAAAAGGGGA; test: UV-Vis melting, 295 nm; conditions: 100 mM K+; 10 mM lithium cacodylate pH 7.2; 2 equivalents NMM, ~4 μM DNA
[4] = test system: GA2 (DNA, G4) GAGGGAGGGAAAAGGGGAGGGA; test: UV-Vis melting, 295 nm; conditions: 100 mM K+; 10 mM lithium cacodylate pH 7.2; 2 equivalents NMM, ~4 μM DNA

- Ka [1]: 1.4 ± 0.1 µM⁻¹
- ΔTm [2]: 7.0 ± 1.7 °C
- ΔTm [3]: 14.6 ± 1.1 °C
- ΔTm [4]: 13.1 ± 0.8 °C
Compound: CCc1c(C)c2cc3nc(cc4nc(cc5c(CC)c(C)c(cc1[nH]2)n5C)C(C)=C4CCC(=O)O)C(CCC(=O)O)=C3C
